The subject of series [1] is quizalofop tolerant mutant wheat accessions and non-mutant check. The series is described as follows: Cross-resistance study within the ACCase herbicide mode of action, plant survival. The class given is in vivo, Triticum aestivum L. The following applies: for survival: 28 DAT, clethodim 65, sethoxydim 264, fluazifop 361 g ai ha^−1, clethodim + 10.5 g ai ha^−1 quizalofop. Here is the method:
(§1) Dose response. A dose response study was completed with 11, 23, 46, 92, and 184 g quizalofop ha^−1. Seven DAT the tops of plants were cut off above the newest above-ground growing point. Binomial evaluation of plant survival was performed 28 DAT. Differences were uncovered in the whole plant sensitivity to increasing application rates of quizalofop. […] Resistant to susceptible ratios for this experiment ranged from 1.6 to 7.5 based on survival/death of the plants. Cross-resistance. A cross-resistance study was conducted within the ACCase herbicide mode of action using herbicides normally lethal to wheat. Clethodim, sethoxydim, and fluazifop were used at rates of 65, 264, and 361 g ai ha^−1, plus a treatment of clethodim and 10.5 g ai ha^−1 quizalofop. Seven DAT the tops of plants were cut off above the newest above-ground growing point. Binomial evaluation of plant survival was performed 28 DAT. Tolerance of quizalofop mutants to clethodim and sethoxydim was low (Table 1). The presence of any cross tolerance presents evidence that stacking resistant ACCase copies into a single plant could lead to resistance to additional herbicides. At this stage only a third of the total ACCase in the plant would have a mutation and contain tolerance to ACCase inhibitors if the mutation is target-site-based. DNA sequencing. DNA was collected from 26 quizalofop-tolerant phenotypes. Genome-specific primers were developed to amplify sequences from the A, B, and D ancestral wheat genomes. Sequenced results were compared to previously cloned non-mutant wheat sequences to determine any nucleotide substitutions present. […] This mutation on the A genome was found in eight accessions, on the B genome in nine accessions, and on the D genome in nine accessions. No accession had more than one of these SNPs. The mutation was a C to T substitution resulting in an alanine to valine change (FIG. 7). Each accession with higher survival than the background contained one of these SNPs. Based on the chromatograph patterns, the majority these SNPs are also believed to be homozygous in the plant. ACCase enzyme characterization. An in-vitro enzyme assay was conducted to observe ACCase in conjunction with quizalofop directly to determine if the presence of ACCase mutations decreases the ability of herbicides to inhibit ACCase activity. Four quizalofop concentrations of 0.1, 1, 10, and 100 μM were included in the assay along with a non-treated treatment. The experiment included four accessions which included a representative from the three mutations detected and non-mutagenized wheat. […] Calculated at the 125 level, the resistant to susceptible value for the A genome was 4.57, the B genome was 3.57 and the D genome was 10.86.

The subject of series [2] is single copy varieties AF28-A, AF26-B, AF10-D. The series is described as follows: Safener potentiation of ACCase herbicide resistance in single copy wheat varieties. The following applies: safener combined with ACCase herbicide; single copy varieties vs multiple copy or multiple genome lines. It is filed as in vivo.
The test system of series [3] is single-gene (AF28, AF26, AF10) and two-gene (AB17, AB157, BD4, AD91) wheat lines. The series is described as follows: Field crop safety trial with and without safener.
Method: During the 2014-2015 growing season, a field crop safety trial was performed to assess these lines for relative levels of resistance and performance under two application timings, applied with and without the safener cloquintocet-mexyl.
Determine relative levels of resistance between two-gene lines and single-gene lines. Determine which application timing (early or late spring) provided the highest crop safety.
One quizalofop susceptible line (Hatcher), four two-gene breeding lines (CO14A006 [AB17], CO14A041[AB157], CO14A075 [BD4], CO14A065 [AD91) and three one-gene parent lines (AF28, AF26, and AF10) were compared. A split-split plot design was used in which quizalofop p-ethyl was applied at 92.5 g ai ha^−1 with 1% MSO corresponding to the highest likely label application rate on March 31st at the tillering growth stage, and on May 2nd at the jointing growth stage. Cloquintocet safener (10 g ai/ha) was included in the split-split plot design. In the analysis, visual injury ratings and height were assessed one month before harvest, and grain yield in grams per plot was also used as a response factor. The SAS statistical package and proc mixed were used for analysis with a tukey-adjusted p-value of 0.05 as the cutoff value. The analysis was sliced by the cloquintocet factor, and comparisons of timing were made within lines.
The test system of series [4] is quizalofop-tolerant winter wheat accessions vs non-mutant Hatcher wheat. The series can be described thus: Visual evaluation of quizalofop injury on quizalofop-tolerant accessions. The class given is in vivo, Triticum aestivum L. The conditions noted are these: nearly all of 18 quizalofop-tolerant accessions; 21.05 g ai ha^−1; 28 DAT; compared with non-mutant Hatcher. Here is the method:
Plants were screened for visual injury, whole-plant quizalofop tolerance differences, cross-tolerance, and evaluated genotypically and enzymatically.
Visual evaluation. 18 quizalofop-tolerant accessions were treated with 21.05 g ai ha^−1 quizalofop, a discriminating dose based on previous studies. Plants were evaluated 28 days after treatment (DAT) for visible injury to quizalofop on a scale of 0 to 100%, with 0 being no injury and 100 being complete desiccation. […] The accessions had few completely dead plants, with the exception of the one accession not different than the background.

Series [5] deals with ACCase, A genome mutation (alanine to valine at position 2004). The series can be described thus: In-vitro ACCase enzyme assay, A genome SNP accession. The class given is biochemical, wheat. Here is the method:
(§2) Dose response. A dose response study was completed with 11, 23, 46, 92, and 184 g quizalofop ha^−1. Seven DAT the tops of plants were cut off above the newest above-ground growing point. Binomial evaluation of plant survival was performed 28 DAT. Differences were uncovered in the whole plant sensitivity to increasing application rates of quizalofop. […] Resistant to susceptible ratios for this experiment ranged from 1.6 to 7.5 based on survival/death of the plants. Cross-resistance. A cross-resistance study was conducted within the ACCase herbicide mode of action using herbicides normally lethal to wheat. Clethodim, sethoxydim, and fluazifop were used at rates of 65, 264, and 361 g ai ha^−1, plus a treatment of clethodim and 10.5 g ai ha^−1 quizalofop. Seven DAT the tops of plants were cut off above the newest above-ground growing point. Binomial evaluation of plant survival was performed 28 DAT. Tolerance of quizalofop mutants to clethodim and sethoxydim was low (Table 1). […] The experiment included four accessions which included a representative from the three mutations detected and non-mutagenized wheat. […] Calculated at the 125 level, the resistant to susceptible value for the A genome was 4.57, the B genome was 3.57 and the D genome was 10.86.

The subject of series [6] is ACCase, B genome mutation (alanine to valine at position 2004). The series can be described thus: In-vitro ACCase enzyme assay, B genome SNP accession. The class given is biochemical, wheat. Here is the method: as §2
Series [7] deals with ACCase, D genome mutation (alanine to valine at position 2004). The series can be described thus: In-vitro ACCase enzyme assay, D genome SNP accession. The class given is biochemical, wheat. The following applies: for ACCase tolerance to quizalofop vs background: D genome SNP. The method, then: as §1, with “The mutation was a C to T substitution resulting in an alanine to valine change (FIG. 7). Each accession with higher survival than the background contained one of these SNPs. Based on the chromatograph patterns, the majority these SNPs are also believed to be homozygous in the plant. ACCase enzyme characterization. An in-vitro enzyme assay was conducted to observe ACCase in conjunction with quizalofop directly to determine if the presence of ACCase mutations decreases the ability of herbicides to inhibit ACCase activity. Four quizalofop concentrations of 0.1, 1, 10, and 100 μM were included in the assay along with a non-treated treatment.” left out

For series [8], the system named is ACCase of non-mutagenized winter wheat. The series can be described thus: In-vitro ACCase enzyme assay, non-mutagenized wheat. The class given is biochemical. The conditions noted are these: non-mutagenized winter wheat vs mutant accessions; 0.1-100 μM. Here is the method:
as §2

We go through 6 compounds from patent US11274314B2, “Herbicide safener combinations for acetyl co-enzyme a carboxylase herbicide resistant plants” (priority 2016, dated 2022).

As for `CCSC(C)CC1CC(=O)C(/C(CC)=N/OC/C=C/Cl)=C(O)C1` (centres unmarked) [Clethodim, (E,E)-(.+−.)-2-[1-[[(3-chloro-2-propenyl)oxy]imino]propyl]-5-[2-(ethylth-io)propyl]-3-hydroxy-2-cyclohexen-1-one], the survival is 0% in series [1] (Accession 0 (non-mutant check)); 10% in series [1] (Accession 1); 0% in series [1] (Accession 2); 0% in series [1] (Accession 3); 0% in series [1] (Accession 4); 0% in series [1] (Accession 5). Moreover, the survival in series [1] (Accession 6) turned out to be 0%; in series [1] (Accession 7) it was 0%; in series [1] (Accession 8) it was 25%; in series [1] (Accession 9), 17%; in series [1] (Accession 10), 0%; in series [1] (Accession 11), 0%. Also, the survival came out at 17% in series [1] (Accession 12); 0% in series [1] (Accession 13); 0% in series [1] (Accession 14); 0% in series [1] (Accession 15); 0% in series [1] (Accession 16); 0% in series [1] (Accession 17).
`CC(Oc1ccc(Oc2ccc(C(F)(F)F)cn2)cc1)C(=O)O` (centres unmarked) [Fluazifop, (.+−.)-2-[4-[[5-(trifluoromethyl)-2-pyridinyl]oxy]phenoxy]propanoic acid]: the survival in series [1] (Accession 0 (non-mutant check)), in series [1] (Accession 1), in series [1] (Accession 2), in series [1] (Accession 3), in series [1] (Accession 4) and in series [1] (Accession 5) was 0% each time. In addition, the survival in series [1] (Accession 6), in series [1] (Accession 7), in series [1] (Accession 8), in series [1] (Accession 9), in series [1] (Accession 10) and in series [1] (Accession 11) was 0% throughout. Moreover, the survival in series [1] (Accession 12), in series [1] (Accession 13), in series [1] (Accession 14), in series [1] (Accession 15), in series [1] (Accession 16) and in series [1] (Accession 17) was 0% in each case.
In the case of `CCCC(=NOCC)C1=C(O)CC(CC(C)SCC)CC1=O` (centres unmarked) [Sethoxydin, 2-[1-(ethoxyimino)-butyl]-5-[2-(ethylthio)propyl]-3-hydroxy-2-cylohexen-1-one], the survival in series [1] (Accession 0 (non-mutant check)), in series [1] (Accession 1), in series [1] (Accession 2), in series [1] (Accession 3), in series [1] (Accession 4) and in series [1] (Accession 5) was 0% each time. In addition, the survival is reported as 0% in series [1] (Accession 6); 0% in series [1] (Accession 7); 0% in series [1] (Accession 8); 0% in series [1] (Accession 9); 0% in series [1] (Accession 10); 8% in series [1] (Accession 11). For the same compound, the survival in series [1] (Accession 12) was found to be 8%; in series [1] (Accession 13) it was 0%; in series [1] (Accession 14) it was 0%; in series [1] (Accession 15) it was 0%; in series [1] (Accession 16), 0%; in series [1] (Accession 17), 0%. Also, the “Tolerance of quizalofop mutants” value in series [1] (summary of Table 1) is “low”.
Regarding `O=C(O)COc1ccc(Cl)c2cccnc12` [cloquintocet acid], the “potentiation of resistance to acetyl-CoA carboxylase herbicides” value in series [2] is reported as “just as effectively resistance as the multiple copy lines”.
As to `CCOC(=O)[C@@H](C)Oc1ccc(Oc2cnc3cc(Cl)ccc3n2)cc1` [quizalofop p-ethyl], the “crop injury (reduced height, reduced yield, or increased injury rating)” value in series [3] (May (jointing) compared to March (tillering) treatment timing) was “consistently higher crop injury”. In addition, in series [3] (all two-gene lines, 92.5 g ai ha^−1, no safener, vs single-gene lines), the crop safety entry is “much higher levels of crop safety”. For the same compound, the “crop injury compared to the untreated control” value in series [3] (single-gene line AF28, 92.5 g ai ha^−1, no safener) was “only showed injury with the May treatment timing”; in series [3] (single-gene lines, 92.5 g ai ha^−1 with 1% MSO, no safener, March and May timings) it was “significant injury”. The crop injury entry in series [3] (two-gene line AD91, 92.5 g ai ha^−1, with or without safener, March or May) is given as “no crop injury for any treatment combination”; in series [3] (two-gene lines AB157 and AB17, 92.5 g ai ha^−1, no safener), “crop injury in the May treatment timing”.
On to `CC(Oc1ccc(Oc2cnc3cc(Cl)ccc3n2)cc1)C(=O)O` (centres unmarked) [quizalofop, (.+−.)-2-[4-[(6-chloro-2-quinoxalinyl)-oxy]phenoxy]propanoic acid], for which the “visible injury to quizalofop on a scale of 0 to 100%” value in series [4] is “more tolerant to quizalofop than non-mutant Hatcher wheat”. Moreover, the “ACCase tolerance to quizalofop vs background” value in series [5] (A genome SNP, 100 μM quizalofop) was “higher than background tolerance”; in series [6] (B genome SNP, 10 μM quizalofop), “higher than background levels of tolerance”; in series [7] (10 μM quizalofop), “higher than background levels of tolerance”; in series [7] (100 μM quizalofop), “higher than background tolerance”. The “resistant to susceptible value, calculated at the 125 level” value in series [5] (A genome, vs non-mutagenized wheat) is reported as 4.57; in series [6] (B genome, vs non-mutagenized wheat) it was 3.57; in series [7] (D genome, vs non-mutagenized wheat) it was 10.86. For the same compound, the “ACCase sensitivity to quizalofop” value in series [8] is reported as “greater sensitivity”.
